Structures can show the parent of a compound that is named as a salt.
Key:
[1] = molecular target: Human immunodeficiency virus type 1 reverse transcriptase (Human immunodeficiency virus 1) (UniProt Q72547); assay: Compound was tested in vitro for percent inhibition of HIV- I reverse transcriptase (RT) at dose 100 uM
[2] = system: Human immunodeficiency virus 1; assay: Effective dose was evaluated for the inhibition of viral replication (PBMC); assay type: functional; conditions: read-out: ED50 (the source's name)

CCN1CC2(CCN(C(=O)c3cc4cc(NS(C)(=O)=O)ccc4[nH]3)CC2)c2ncccc21
inhibition [1]: 38%

CC(C)Nc1cccnc1N1CCN(C(=O)c2cc3cc(NS(C)(=O)=O)ccc3[nH]2)CC1 [DELAVIRDINE MESYLATE]
EC50 [2]: 0.1 nM

CCNc1cccnc1N1CCN(C(=O)c2cc3cc(OC)ccc3[nH]2)CC1 [ATEVIRDINE SULPHATE]
EC50 [2]: 1 nM

— ChEMBL document CHEMBL1128799, “Design and synthesis of a conformationally constrained analog of the bis(heteroaryl)piperazine (BHAP) HIV-1 reverse transcriptase inhibitor atevirdine” (Bioorg Med Chem Lett, 1995)
